Values quoted from earlier work in patent publication US7816298B2, “Hydroconversion processes employing multi-metallic catalysts and method for making thereof” (Chevron U. S. A. Inc., priority 2007, dated 2010).

Tested on: rats
Conditions: as single oral dose to rats; values quoted for chelating agents (ligand L)

Compound: O=CC(=O)O [glyoxylic]
- LD50: 3000 mg/kg
